For two compounds, water solubility and metabolized in vivo results are on record in patent US5420335A, “Parenteral nutrients based on watersoluble glycerol bisacetoacetates” (priority 1993, dated 1995).

One series in a line: Water solubility. Particulars: in words.
For series [1] the following is noted: in words, prior art; cited from earlier work.
For series [2] the following is noted: in words; cited from earlier work.

SMILES strings stand for the structures. Entries after “also recorded” stand apart in the source; their conditions may differ. Like-named read-outs stand apart in the source and are kept apart here.

Regarding `CC(=O)CC(=O)OCC(COC(=O)CC(C)=O)OC(=O)CC(C)=O` [trisacetoacetyl glycerol, trisacetoacetylglycerol], in the series “Water solubility”, the water solubility result was “rendered water soluble when in the presence of a glycerol bisacetoacetate; also recorded: insoluble by itself in water; also recorded: surprisingly solubilized in water when in the presence of 1,2- and 1,3-bisacetoacetyl glycerol”.

`CC(=O)CC(=O)OCC(O)CO` (stereo not drawn) [monoacetoacetin, monoacetoacetylglycerol]: the water solubility entry in series [1] is reported as “water soluble”. Further, the metabolized in vivo entry in series [2] is recorded as “metabolized in vivo”.
